Data published in patent US20130216614A1, “IMMUNOGENIC COMPOSITIONS AND METHODS FOR TREATING NUEROLOGIC DISORDERS” (Glaxosmithkline Biologicals S.A., priority 2010, published 2013).

Legend:
TLR2 mRNA = assay: In situ hybridization of TLR2 transcript in brain after peripheral injection; format: in vivo, C57BL/6J mice; settings: 24 hr after single i.p. injection; CRX compounds 20 μg/mouse, 3D MPL 50 μg/mouse
From the text: In order to evaluate the innate activation within the brain, we have performed in situ hybridization 24 hr following the systemic injection of either 3D MPL, CRX524 or CRX527 or CRX601 using the intra peritoneal route.
Specifically GSK Bio injected different compositions in C57BL/6J mice for evaluating the potency of those adjuvants after 24 hrs of peripheral injection to trigger microglial cell activation in the brain. Animal study groups were:
GSK Bio performed the injections in C57BL6 mice at the Centre de biologie expérimentale de I'INRS-IAF under an IACUC approved protocol. Twenty four hours after the injections, mice were deeply anesthetized via an intraperitoneal injection of a mixture of ketamine hydrochloride and xylazine and then perfused intracardially with ice-cold 0.9% saline, followed by 4% paraformaldehyde (PFA) in a 0.1 M borax buffer, pH 9.5, at 4° C. Brains were rapidly removed from skulls, postfixed in PFA 1-3 d at 4° C. and sent to the CHUL. They were then cryoprotected in 10% sucrose diluted in PFA overnight. The frozen brains were sectioned into 25-μm-thick coronal sections using a microtome (Reichert-Jung, Cambridge Instruments Company), and slices were collected in a cold cryoprotectant solution (0.05 M sodium phosphate buffer, pH 7.3, 30% ethylene glycol, and 20% glycerol, stored at −20° C.).
Every 12th section of brain slices, starting from the end of the olfactory bulb to the end of the cerebral cortex, was mounted on Colorfrost/Plus microscope slides (Fisher Scientific). In situ hybridization histochemical localization of TLR2 transcript was performed using ^35S-labeled cRNA probe. […]
Dual labeling combining immunocytochemistry and in situ hybridization was performed as described previously (Laflamme and Rivest, 2001; Nadeau and Rivest, 2000 infra) to localize TLR2 transcripts in microglia (iba-1 staining). […] The images depicted by the different panels are representative of the signal detected on the slides for each group of mice.

[1] = Innate cytokine/chemokine profile in sera after injection; format: in vivo, C57BL/6 mice
Protocol: FIG. 17: Innate cytokines profile from sera after either LPS or 3DMPL injected mice using the intraperitoneal route at 2 hr or 6 hr post injection time point. Results are shown in relative units (RU or pg/ml) of various cytokines/chemokines in sera for PBS and LPS or 3DMPL injected mice after 2 hours or 6 hours. N=5 mice per group. […] Tukey post-hoc test used for the comparison following ANOVA-1 analysis.
FIG. 18: Innate cytokines profile from sera after either AS01B, AS03 or AS04D injected mice using the intramuscular at 2 hr or 6 hr post injection time point. Results are shown in relative units (RU or pg/ml) of various cytokines/chemokines in sera for PBS and LPS or 3D MPL injected mice after 2 hours or 6 hours. N=5 mice per group. The bars represent mean±SEM.
We measured several cytokines and chemokines in the sera of C57BL/6 mice 2 and 6 h following a single intraperitoneal injection of either MPL or LPS.
Innate cytokines profile from sera after either AS01B, AS03 or AS04D was injected into mice using the intramuscular route, samples taken at 2 hr or 6 hr post injection time point. Results are shown in relative units (RU or pg/ml) of various cytokines/chemokines in sera for PBS and LPS or MPL injected mice after 2 hours or 6 hours. N=5 mice per group. The bars represent mean±SEM.

[2] = tested on: peripheral blood monocytes; assay: Ex vivo uptake of fluorescent Aβ42 by peripheral blood monocytes from adjuvanted mice; format: in vivo, C57BL/6 mice; settings: i.m. injection; AS01B mouse full dose, CRX601 2 μg dose
From the text: To begin to examine the function of the increase of monocytes in the peripheral blood, we examined the capacity of those monocytes to uptake Aβ42 in a test tube. In order to measure that phagocytic activity, we have used fluorescent HiLyteFluo Aβ42 (Anaspec Inc).
We examined the capacity of monocytes to uptake Aβ42 in a test tube. In order to measure that phagocytic activity we have used fluorescent HiLyteFluo Aβ42 (Anaspec Inc).
Preparation of cells: Peripheral blood was drawn from C57BL/6 mice via cardiac puncture with lithium-heparin as anticoagulant, 24-Hour after injection of the adjuvants used herein. Red blood cell lysis was performed twice on pooled blood with Ammonium Chloride-based Buffer (Sigma, Steinheim, Germany) and cells were counted with the EasyCount™ System (Immunicon). […]
Samples were acquired on a flow cytometer (BD FACSCanto II) and data analyzed with the FACSDiva software (BD Biosciences).
Monocytes were identified by their Side/Forward scatter properties, excluding debris and gated as CD3-/CD45R/B220-/Ly-6G-/NK1.1-(Lineage-)/CD11b+ cells. Aβ uptake was assessed by reporting the percentage and Mean Fluorescence Intensity (GeoMean) of positive HiLyte fluor488 Aβ1-42 cells among gated monocytes.

Row | Compound | TLR2 mRNA activation in ventricular regions and choroid plexus (TLR2 mRNA) | CCL2 level compared to the LPS group ([1]; 2 h after i.p. injection) | CXCL-1 level compared to the LPS group ([1]; 2 h after i.p. injection) | levels of TNF-α and IL-6 in sera ([1]; 2 h post i.p. injection) | levels of TNF-α and IL-6 in sera ([1]; 6 h post i.p. injection) | serum cytokine and chemokine levels compared with LPS-treated animals ([1]; single i.p. injection, 2 and 6 h) | Aβ42 uptake by monocytes compared to PBS group [2]
1 | CCCCCCCCCCC[C@H](CC(=O)N[C@H]1[C@H](OC[C@H](NC(=O)C[C@@H](CCCCCCCCCCC)OC(=O)CCCCCCCCC)C(=O)O)O[C@H](CO)[C@@H](OP(=O)(O)O)[C@@H]1OC(=O)C[C@@H](CCCCCCCCCCC)OC(=O)CCCCCCCCC)OC(=O)CCCCCCCCC [CRX527] | clearly activated |  |  |  |  |  | 
2 | 3-O-desacyl-4′-monophosphoryl lipid A [3D MPL] | lesser extent | higher | similar | modest increase | essentially abolished | substantially lower | 
3 | CCCCCCCCCCC[C@H](CC(=O)N[C@H]1[C@H](OC[C@H](NC(=O)C[C@@H](CCCCCCCCCCC)OCCCCCCCCCC)C(=O)O)O[C@H](CO)[C@@H](OP(=O)(O)O)[C@@H]1OC(=O)C[C@@H](CCCCCCCCCCC)OCCCCCCCCCC)OCCCCCCCCCC [CRX601] | clearly activated |  |  |  |  |  | higher amount
